What was measured:
[1] = molecular target: T1, Tyrosine-protein kinase JAK1 (Homo sapiens, UniProt P23458); assay: JAK1 Kinase Assay: TBDIn vitro kinase assays described below can be used to determine the activity of a test compound for inhibiting the activity of JAK1 kinase. The test compounds were dissolved in dimethyl sulfoxide and diluted with water to a serial concentration gradient as required in the experiment. JAK1 substrates (Cell Signaling Technology, Catalog Number: 1305s) and ATP (2 mM) solution …
[2] = molecular target: T2, Tyrosine-protein kinase JAK3 (Homo sapiens, UniProt P52333); assay: In Vitro Kinase Assay: In vitro kinase assays described below can be used to determine the activity of a test compound for inhibiting the activity of JAK3 kinase. The test compounds were dissolved in dimethyl sulfoxide and diluted with water to a serial concentration gradient as required by the experiment. JAK3 substrates (Cell Signaling Technology, Catalog Number: 1305s) and ATP (2 mM) solution …
T2 sequence (P52333 whole entry): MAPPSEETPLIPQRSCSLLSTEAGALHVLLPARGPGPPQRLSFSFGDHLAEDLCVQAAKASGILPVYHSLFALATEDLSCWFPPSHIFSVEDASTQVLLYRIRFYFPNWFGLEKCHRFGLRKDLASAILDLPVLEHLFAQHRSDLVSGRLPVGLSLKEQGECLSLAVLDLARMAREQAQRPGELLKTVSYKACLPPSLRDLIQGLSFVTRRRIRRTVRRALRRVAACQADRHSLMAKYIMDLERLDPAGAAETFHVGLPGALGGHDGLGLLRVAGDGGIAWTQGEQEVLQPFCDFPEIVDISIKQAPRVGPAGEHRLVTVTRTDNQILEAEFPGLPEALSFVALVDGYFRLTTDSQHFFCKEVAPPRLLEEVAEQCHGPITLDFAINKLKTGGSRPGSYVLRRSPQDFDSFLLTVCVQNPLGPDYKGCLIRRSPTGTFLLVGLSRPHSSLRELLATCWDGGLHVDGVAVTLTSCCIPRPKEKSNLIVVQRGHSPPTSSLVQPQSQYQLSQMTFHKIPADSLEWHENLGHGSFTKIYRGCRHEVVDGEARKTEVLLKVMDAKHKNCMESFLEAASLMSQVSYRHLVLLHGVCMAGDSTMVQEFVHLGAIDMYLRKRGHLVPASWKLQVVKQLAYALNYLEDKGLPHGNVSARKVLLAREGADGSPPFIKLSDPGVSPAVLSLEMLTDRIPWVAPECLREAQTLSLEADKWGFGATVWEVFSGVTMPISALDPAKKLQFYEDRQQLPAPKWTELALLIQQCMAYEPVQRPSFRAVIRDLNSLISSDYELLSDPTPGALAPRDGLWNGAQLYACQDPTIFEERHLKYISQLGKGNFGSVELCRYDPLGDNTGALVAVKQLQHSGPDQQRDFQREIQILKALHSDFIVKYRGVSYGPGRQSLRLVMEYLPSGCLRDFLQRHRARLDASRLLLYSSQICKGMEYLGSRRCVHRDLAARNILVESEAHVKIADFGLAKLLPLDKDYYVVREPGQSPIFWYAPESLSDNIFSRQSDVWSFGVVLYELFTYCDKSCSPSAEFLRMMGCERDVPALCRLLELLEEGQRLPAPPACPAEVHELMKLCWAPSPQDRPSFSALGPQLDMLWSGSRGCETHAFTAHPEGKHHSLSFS

[3] = molecular target: T1, Tyrosine-protein kinase JAK1; assay: IC50 values of test compounds was calculated from the data of the test compounds in inhibiting the activity of JAK1 kinase at different concentrations.

T1 sequence (P23458 whole entry): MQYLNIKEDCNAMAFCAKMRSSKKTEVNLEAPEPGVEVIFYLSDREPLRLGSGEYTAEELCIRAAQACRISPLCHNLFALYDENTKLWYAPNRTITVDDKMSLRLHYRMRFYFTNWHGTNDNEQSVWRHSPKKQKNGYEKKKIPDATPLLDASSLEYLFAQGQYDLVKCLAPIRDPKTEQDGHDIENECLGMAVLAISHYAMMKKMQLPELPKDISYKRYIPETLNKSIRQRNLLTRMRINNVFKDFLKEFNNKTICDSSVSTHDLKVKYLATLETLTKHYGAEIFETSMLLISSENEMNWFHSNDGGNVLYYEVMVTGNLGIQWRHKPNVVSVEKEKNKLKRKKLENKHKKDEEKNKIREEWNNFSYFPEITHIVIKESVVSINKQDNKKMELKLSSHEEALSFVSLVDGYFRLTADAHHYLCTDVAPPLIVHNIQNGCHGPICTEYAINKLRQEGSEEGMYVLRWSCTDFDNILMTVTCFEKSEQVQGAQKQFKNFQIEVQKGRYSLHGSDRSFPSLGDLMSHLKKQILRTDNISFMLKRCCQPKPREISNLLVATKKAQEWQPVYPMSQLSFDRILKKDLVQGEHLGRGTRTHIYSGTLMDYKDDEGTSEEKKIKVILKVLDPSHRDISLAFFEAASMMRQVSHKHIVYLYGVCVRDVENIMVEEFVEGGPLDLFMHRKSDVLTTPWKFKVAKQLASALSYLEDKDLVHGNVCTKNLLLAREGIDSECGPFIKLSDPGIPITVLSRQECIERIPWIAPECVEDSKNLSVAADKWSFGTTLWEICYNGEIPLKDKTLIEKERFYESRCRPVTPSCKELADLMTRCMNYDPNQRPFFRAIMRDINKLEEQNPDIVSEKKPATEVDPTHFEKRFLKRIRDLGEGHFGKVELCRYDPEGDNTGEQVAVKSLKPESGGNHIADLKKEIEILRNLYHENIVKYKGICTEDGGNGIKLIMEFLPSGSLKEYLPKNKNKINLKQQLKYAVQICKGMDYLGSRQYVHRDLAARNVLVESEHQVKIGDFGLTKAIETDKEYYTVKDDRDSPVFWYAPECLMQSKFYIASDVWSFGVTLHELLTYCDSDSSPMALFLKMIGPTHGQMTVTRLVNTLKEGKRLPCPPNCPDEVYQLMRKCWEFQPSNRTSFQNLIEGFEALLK

IC50 [3]	Structure (SMILES)	IC50 [1]	IC50 [2]
–	CN(c1ncnc2[nH]ccc12)[C@@H]1C[C@@H]2CCN(C(=O)Nc3nncs3)C[C@@H]2C1	40 nM	148 nM
45 nM	CN(c1ncnc2[nH]ccc12)[C@H]1C[C@@H]2CN(C(=O)[C@H](O)C(F)(F)F)C[C@@H]2C1	–	–
